Source: paper PMC7077990 (eLife, 2020)

Experiments:
[1] = biological target: T1, mitochondrial pyruvate carrier MPC (Mus musculus, UniProt P63030+Q9D023); assay: mitochondrial pyruvate uptake in intact astrocytes, mito-PyronicSF fluorescence; format: cell-based; conditions: 3 mM extracellular pyruvate; KRH buffer pH 7.4; 22–25°C
T1 construct: gene Mpc1; native carrier in intact cultured cortical astrocytes; read out as mitochondrial pyruvate uptake with mito-PyronicSF; subunit composition not determined
T1 sequence (P63030 2-109): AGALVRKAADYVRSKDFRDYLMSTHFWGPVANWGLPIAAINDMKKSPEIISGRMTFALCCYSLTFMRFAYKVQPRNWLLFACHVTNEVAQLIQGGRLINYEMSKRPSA
T1 sequence (Q9D023 1-127): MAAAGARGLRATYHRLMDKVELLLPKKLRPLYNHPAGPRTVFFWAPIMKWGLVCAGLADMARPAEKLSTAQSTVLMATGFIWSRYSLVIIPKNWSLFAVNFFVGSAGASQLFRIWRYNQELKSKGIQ

[2] = biological target: T1, mitochondrial pyruvate carrier MPC; assay: as above; format: cell-based; conditions: 3 mM extracellular pyruvate; KRH buffer pH 7.4; 22–25°C; remark: listed apart in the source

% uptake inhibition at 10 μM [1] [%] | % uptake inhibition at 30 μM [2] [%] | SMILES
69 |  | N#C/C(=C\c1cn(-c2ccccc2)c2ccccc12)C(=O)O [UK-5099]
 | 67 | CN(CCOc1ccc(CC2SC(=O)NC2=O)cc1)c1ccccn1 (centres unmarked) [rosiglitazone]
